Test results as given in patent US20230390373A1, “A LIVE STRAIN OF STAPHYLOCOCCUS AUREUS AND USES THEREOF” (priority 2020, published 2023).
Entries after “also recorded” stand apart in the source; their conditions may differ. Residues, ends and D or L forms follow the SMILES beside them. *: point of attachment. Cbz = O=C(OCc1ccccc1)*; CH2F = FC*

Key:
BALB/c mice = test: Th17 response in inhibitor-pretreated mice infected with wild type S. aureus; assay type: in vivo; conditions: splenocytes re-stimulated MOI=5, 4 days
Method: Protocol for harvest and calculation of wild type and variant S. aureus strains was the same as described above. To induce systemic blood infection model of S. aureus in FIG. 1, 200 ul of bacterial suspension (1×10^7 CFU) was administered intravenously into naïve 6-wk-old female BALB/c mice. To establish re-infection model in FIG. 5, mice were intraperitoneally infected with WT S. aureus (USA300), adsA mutant strain or WT S. aureus (USA300)/adsA mutant strain (4×10^7 CFU) for a total of 3 times at 7 days interval. After 14 days convalescent period, mice were re-challenged with lethal dose of WT USA300 S. aureus (4×10^7 CFU) or sublethal dose of WT USA300 S. aureus (2×10^7 CFU). Upon bacterial infection, health conditions of mice were frequently monitored in compliance with humane end points (HEP) form. To measure staphylococcal burden in blood, after 2 h of i.v. infection, mice were anaesthetized by intraperitoneal injection of 80-120 mg ketamine and 3-6 mg xylazine per kilogram of body weight and blood was collected via tail vein. Blood samples were incubated on ice in 0.5% saponin/PBS for lysis of host cells. Later on, serial dilutions were performed on BHI agar plates for colony formation. To enumerate bacteria in tissues, mice were euthanized by CO2 inhalation, organs including lungs, spleens and kidneys were harvested and homogenized in 1% Triton X-100/PBS. Aliquots of homogenates were serially diluted and spread on BHI agar plates for colony formation. For histopathology, kidneys were incubated in 4% paraformaldehyde (PFA) at room temperature for 24 h. Tissues were embedded in paraffin, thin sectioned, stained with hematoxylin-eosin, and examined by microscopy.
Animals were sacrificed at indicated time points in re-infection model. Spleens were harvested and grinded for cells suspension. After centrifugation, splenocytes were experienced red blood cell lysing, washes and filtering, and single cells suspension was cultured in RPMI-1640 media supplemented with 10% FBS, 100 U/ml penicillin and […]. […]

HMDM = test: Cell viability assay of infected HMDM; assay type: cell-based, human; conditions: MOI=100, 8 hours, Z-VADFMK 25 μM, VX765 20 μM, NSA 5 μM
Method: Human peripheral blood mononuclear cells (PBMC) were isolated from human buffy coat (provided by Department of Microbiology, The University of Hong Kong, Li Ka Shing Faculty of Medicine) by Ficoll-Paque gradient protocol. In brief, 30 mL of 1:1 PBS diluted buffy coat from healthy donors were layered on Ficoll-Paque Plus (GE Healthcare, Life Sciences) and centrifuged at 450×g for 30 min at room temperature. Separated layers of PBMC were collected and then washed 2 times with RPMI-1640 medium. After washing, the cells were resuspended in 4 mL red blood cell lysing buffer (Biolegend, RBC Lysis Buffer) and incubated for 5 min at room temperature. Following two subsequent washes, the cell pellet was resuspended in RPMI-1640 media supplemented with 10% FBS, 100 U/ml penicillin and 0.1 mg/ml streptomycin for further infection experiments. To differentiate human monocytes-derived macrophages (HMDM), isolated PBMC were seeded on poly-L-lysine coated coverslips in 24 well plate and cultured in RPMI-1640 media supplemented with L-glutamine, 10% FBS, 1×penicillin/streptomycin, 10 mM HEPES, 50 ng/mL hGM-CSF (PeproTech) for up to 7 days differentiation.
One day before bacterial infection experiments, S. aureus strains were inoculated and cultured with BHI broth for overnight. Next day, overnight culture of bacteria strains were sub-cultured in fresh BHI broth at a dilution of 1:100 and grown at 37° C. Following 3 hours of culturing, S. aureus were harvested and washed for two to three times in cold PBS by centrifugation. […] The number of bacteria was determined by serial dilution and colony formation on BHI agar plates. […]
Culture supernatants of relevant cells were collected and centrifuged at 13000 rpm for 4 min to get rid of cell debris and bacteria. Levels of LDH in culture supernatants were measured by CytoTox 96 Non-Radioactive Cytotoxicity Assay kit (Promega). Cell viability was measured by the CellTiter Glo Luminescent Cell Viability Assay (Promega). […]

[1] = test system: mouse bone marrow derived dendritic cells (BMDC); test: IL-1β release / inflammasome activation in infected BMDC; assay type: cell-based; conditions: MOI=20, 6 hours; for IL-1β production/release in S. aureus infected BMDC: MCC950 10 μM, Cytochalasin D 5 μM, ZM241385 10 μM
Method: (§1) Bone marrow cells extracted from femur of 8-12 weeks old female BALB/c mice were culture in RPMI-1640 medium supplemented with L-glutamine, 10% heat inactivated-FBS, 1×penicillin/streptomycin, 10 mM HEPES, 50 μM-β mercaptoethanol, 20 ng/ml mGM-CSF (PeproTech) for up to 7 days differentiation.
One day before bacterial infection experiments, S. aureus strains were inoculated and cultured with BHI broth for overnight. Next day, overnight culture of bacteria strains were sub-cultured in fresh BHI broth at a dilution of 1:100 and grown at 37° C. Following 3 hours of culturing, S. aureus were harvested and washed for two to three times in cold PBS by centrifugation. Finally, S. aureus strains were diluted with desired volume of PBS, yielding an OD600 of 0.5 (1×10^8 CFU/ml), and further centrifuged and resuspended at desired bacterial concentration. The number of bacteria was determined by serial dilution and colony formation on BHI agar plates. Mammalian cells were plated in 24-well plates at a number of 4×10^5 per well and infected with S. aureus strains in antibiotic free medium at the indicated MOI.
Culture supernatants of relevant cells were collected and centrifuged at 13000 rpm for 4 min to get rid of cell debris and bacteria. Levels of LDH in culture supernatants were measured by CytoTox 96 Non-Radioactive Cytotoxicity Assay kit (Promega). Cell viability was measured by the CellTiter Glo Luminescent Cell Viability Assay (Promega). ELISA assay was conducted according manufactures' instructions.
For detection of cleaved form of caspase-1, cell culture supernatants were precipitated by methanol-chloroform method. Briefly, supernatant was mixed with an equal volume of methanol and 0.25 volumes of chloroform, vortexed and centrifuge for 15 min at 20000 g. The upper phase was discarded and the interphase was mixed with methanol. After centrifugation for 5 min at 20000 g, the pellet was resuspended in 2×SDS-PAGE sample buffer and boiled for 5 min at 100° C. Protein samples were separated by 15% SDS-PAGE gels and were transferred onto PVDF membranes. Total cell lysates lysed by RIPA buffer (50 mM Tris-Cl, pH 7.4, 150 mM NaCl, 1% Triton X-100, 0.1% SDS, 1% sodium deoxycholate and 0.5 mM EDTA) supplemented with 1× protease inhibitor cocktail (Roche) were boiled for 5 min at 100° C. Lysate aliquots were separated by SDS-PAGE gels and transferred onto PVDF membranes. Blots were probed with primary antibody: rabbit anti-caspase-1 (1:1000 dilution, 179515 from Abcam, USA), mouse anti-β actin (1:5000 dilution, A5316 from Sigma). Anti-rabbit or mouse antibodies conjugated to HRP were used as secondary reagents.

NLRP3 = NLRP3 expression in BMDC (qPCR, immunoblot); assay type: cell-based, mouse; conditions: 4 hours
Method: as §1
For detection of cleaved form of caspase-1, cell culture supernatants were precipitated by methanol-chloroform method. Briefly, supernatant was mixed with an equal volume of methanol and 0.25 volumes of chloroform, vortexed and centrifuge for 15 min at 20000 g. The upper phase was discarded and the interphase was mixed with methanol. After centrifugation for 5 min at 20000 g, the pellet was resuspended in 2×SDS-PAGE sample buffer and boiled for 5 min at 100° C. Protein samples were separated by 15% SDS-PAGE gels and were transferred onto PVDF membranes. […]
Total RNA was extracted from cells using TRIzol Reagent (Invitrogen) and 1 μg total RNA was used for reverse transcription (Takara) according to manufactures' instructions. The cDNA was then used for quantitative RT-PCR to analyze relevant mRNA expression using Applied Biosystems StepOnePlus™ Real-Time PCR System and SYBR Premix Ex Taq kit (Takara) according to the manufacturer's instruction. The data were normalized to GAPDH and fold change in gene expression was calculated by comparative CT method (2^−ΔΔCT).

Cn1c(=O)c2c(ncn2C)n(C)c1=O [caffeine, Caffeine]
Th17 response / IL-17A production vs vehicle control (BALB/c mice): did not have any influence on Th17 immunity

COc1nccnc1NS(=O)(=O)c1ccc(NC(=O)/C=C/c2ccc([N+](=O)[O-])s2)cc1 [necrosulfonamide, Necrosulfonamide]
effect on S. aureus / adsA mutant-induced cell death (HMDM): did not have apparent effect on S. aureus induced cytotoxicity

Nc1ncnc2c1ncn2[C@@H]1O[C@H](CO)[C@@H](O)[C@H]1O [adenosine, Adenosine]
inflammasome activation (IL-1β release and immunoblot) in BMDC infected with adsA mutant ([1]; pretreated with adenosine 100 μM): impaired inflammasome activation
expression level of NLRP3 (qPCR) (NLRP3; BMDC activated by adsA mutant S. aureus or Pam3CSK4 / LPS (100 ng/ml), adenosine 100 μM): decreased the expression level of NLRP3
NLRP3 expression at protein level (NLRP3; BMDC pre-treated with a series of dose of adenosine, LPS 100 ng/ml): inhibited NLRP3 expression at protein level in a dose-dependent manner

C=C1[C@@H](C)[C@H]2[C@H](Cc3ccccc3)NC(=O)[C@]23[C@H](OC(C)=O)/C=C/[C@@](C)(O)C(=O)[C@@H](C)C/C=C/[C@H]3[C@@H]1O [Cytochalasin D]
IL-1β production/release in S. aureus infected BMDC [1]: nearly suppressed IL-1β production
IL-1β production/release in S. aureus infected BMDC ([1]; listed as cytochalasin D): had little IL-1β production

CC(C)(O)c1coc(S(=O)(=O)NC(=O)Nc2c3c(cc4c2CCC4)CCC3)c1 [MCC950]
IL-1β production/release in S. aureus infected BMDC [1]: largely dampen IL-1β production; also recorded: almost prevented the release of IL-1β; also recorded: had little IL-1β production
Th17 response / IL-17A production vs vehicle control (BALB/c mice): decreased IL-17A production

Nc1nc(NCCc2ccc(O)cc2)nc2nc(-c3ccco3)nn12 [ZM241385]
IL-1β production/release in S. aureus infected BMDC [1]: improved IL-1β production

CCO[C@@H]1OC(=O)C[C@@H]1NC(=O)[C@@H]1CCCN1C(=O)[C@@H](NC(=O)c1ccc(N)c(Cl)c1)C(C)(C)C [VX765]
Th17 response / IL-17A production vs vehicle control (BALB/c mice): decreased IL-17A production
effect on S. aureus / adsA mutant-induced cell death (HMDM): dramatically decrease adsA mutant-induced cell death

COC(=O)C[C@H](NC(=O)[C@H](C)NC(=O)[C@@H](NC(=O)OCc1ccccc1)C(C)C)C(=O)CF [Z-VAD-FMK] (Cbz-Val-Ala-Asp(OMe)-CH2F)
effect on S. aureus / adsA mutant-induced cell death (HMDM): dramatically decrease adsA mutant-induced cell death
